Reference: US10272081B2, “SHIP1 modulators and methods related thereto” (Aquinox Pharmaceuticals (Canada) Inc., priority 2013, dated 2019)

The molecules below were run against T1, His-hSHIP1 enzyme (Homo sapiens, UniProt Q92835) (assay: His-hSHIP1 activity, approach 1 (phosphate release from IP4, Biomol Green)). Conditions: activation of His-hSHIP1; IP4 50 μM; test compound 0-300 μM; no asterisk in Table 2.
T1 construct: His
T1 sequence (Q92835 1-1189): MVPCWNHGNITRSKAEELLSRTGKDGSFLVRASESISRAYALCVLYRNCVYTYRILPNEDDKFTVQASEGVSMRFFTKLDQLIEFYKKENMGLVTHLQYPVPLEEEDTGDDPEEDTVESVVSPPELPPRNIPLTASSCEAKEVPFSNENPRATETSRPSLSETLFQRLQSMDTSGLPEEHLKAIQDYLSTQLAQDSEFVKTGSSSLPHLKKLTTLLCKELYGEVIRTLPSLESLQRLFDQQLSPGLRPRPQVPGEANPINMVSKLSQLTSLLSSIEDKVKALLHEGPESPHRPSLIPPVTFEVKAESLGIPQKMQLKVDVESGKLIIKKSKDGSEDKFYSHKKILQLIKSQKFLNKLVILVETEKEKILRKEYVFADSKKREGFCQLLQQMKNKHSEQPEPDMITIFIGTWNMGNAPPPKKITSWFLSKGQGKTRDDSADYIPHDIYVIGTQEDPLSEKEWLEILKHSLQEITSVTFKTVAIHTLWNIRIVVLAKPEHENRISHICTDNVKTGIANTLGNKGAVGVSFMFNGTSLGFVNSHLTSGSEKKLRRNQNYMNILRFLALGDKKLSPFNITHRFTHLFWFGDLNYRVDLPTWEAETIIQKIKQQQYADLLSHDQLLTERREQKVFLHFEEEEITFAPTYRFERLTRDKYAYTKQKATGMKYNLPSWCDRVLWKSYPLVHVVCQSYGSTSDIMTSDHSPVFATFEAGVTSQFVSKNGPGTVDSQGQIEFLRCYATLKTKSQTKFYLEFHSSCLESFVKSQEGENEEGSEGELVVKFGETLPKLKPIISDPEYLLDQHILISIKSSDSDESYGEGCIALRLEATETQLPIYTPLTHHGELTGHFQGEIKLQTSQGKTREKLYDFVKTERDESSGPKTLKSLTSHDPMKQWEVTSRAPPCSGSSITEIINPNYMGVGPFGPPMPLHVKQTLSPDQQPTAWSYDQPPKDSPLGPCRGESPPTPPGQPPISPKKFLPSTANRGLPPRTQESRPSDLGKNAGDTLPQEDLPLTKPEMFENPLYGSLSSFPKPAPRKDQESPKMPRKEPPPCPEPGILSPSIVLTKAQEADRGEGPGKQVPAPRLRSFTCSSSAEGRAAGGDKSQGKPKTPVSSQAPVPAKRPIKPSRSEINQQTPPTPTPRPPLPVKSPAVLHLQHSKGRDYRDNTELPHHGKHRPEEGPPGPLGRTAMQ
Assay type: biochemical
Method: (§1) Test compounds are dissolved in 95% ethanol to form stock solutions. Before screening, the stock solutions are diluted with Phosphatase Assay Buffer (20 mM Tris-HCL, 10 mM MgCl2 pH 7.5, 0.02% Tween 20) to form working assay solutions that contain 10% ethanol. The assay is carried out on 96-well microtiter plates using a modified procedure of that reported by Ong et al., Blood 110, 1942-1949, 2007 and Yang et al., Org Lett 7, 1073-1076, 2005, both of which references are incorporated herein by reference in their entirety.
Data were generated by one of two variant methods. Test compounds are screened by one of two approaches described as follows. In the first approach, each reaction contains 5 μL of His-hSHIP1 enzyme (5-20 ng), 10 μL of the substrate, 1,3,4,5-inositol tetrakisphosphate (IP4; 50 μM final), 5 μL of Phosphatase Assay Buffer, and 5 µL of test compound at various concentrations in 10% ethanol (0-300 μM final). Control blanks are also prepared by replacing His-hSHIP1 enzyme, IP4, or test compounds with Phosphatase Assay Buffer. After adding the reaction components in a 96-well microtiter plate on ice, the reaction is mixed by briefly shaking the plate vigorously. The reaction is then incubated at 37° C. for 15 min with gentle shaking followed by addition of 100 μL of Biomol Green Reagent (BIOMOL, Pa., USA) to terminate the reaction. The free phosphate released from IP4 by His-hSHIP1 binds to the Biomol Green Reagent, which turns the dye to green color. After incubating the mixture for 20 min at room temperature for color development, the absorbance is read with SpectraMax Plus 96-well plate reader (Molecular Devices, Sunnyvale, Calif., USA) at a wavelength of 650 nm.

Scoring, Approach 1 (% increase relative to background), + (0 < x < 50):
COc1cc(OC)cc(C(=O)[C@H]2[C@H](C)[C@H](N)C[C@H]3C(C)(C)CCC[C@]23C)c1 [Compound No. 55, (2R,3S,4S,4aS,8aS)-4-[(3,5-dimethoxyphenyl)carbonyl]-3,4a,8,8-tetramethyl-decahydronaphthalen-2-amine]
C[C@@H]1[C@H](N)C[C@H]2C(C)(C)CCC[C@]2(C)[C@H]1C(=O)c1cc(O)cc(O)c1 [Compound No. 56, 5-{[(1S,2S,3R,4aS,8aS)-3-amino-2,5,5,8a-tetramethyl-decahydronaphthalen-1-yl]carbonyl}benzene-1,3-diol]

Scoring, Approach 1 (% increase relative to background), +++ (x ≥65):
COc1cc(OC)cc(C(=O)[C@H]2[C@@H](C)[C@H](O)C[C@H]3C(C)(C)CCC[C@]23C)c1 [Compound No. 52, (2R,3R,4S,4aS,8aS)-4-[(3,5-dimethoxyphenyl)carbonyl]-3,4a,8,8-tetramethyl-decahydronaphthalen-2-ol]
C[C@H]1CC[C@H]2C(C)(C)CCC[C@]2(C)[C@H]1CCc1cc(O)cc(O)c1 [Compound No. 62, 5-{2-[(1S,2S,4aS,8aR)-2,5,5,8a-tetramethyl-decahydronaphthalen-1-yl]ethyl}benzene-1,3-diol]
Cc1cc(O)cc(C(=O)[C@H]2[C@H](C)C(C(N)=O)C[C@H]3C(C)(C)CCC[C@]23C)c1 (stereo partly drawn) [Compound No. 65, (3S,4S,4aS,8aS)-4-[(3-hydroxy-5-methylphenyl)carbonyl]-3,4a,8,8-tetramethyl-decahydronaphthalene-2-carboxamide]

Scoring, Approach 1 (% increase relative to background), ++ (50 ≤ x < 65):
COc1cc(OC)cc(C(=O)C[C@@H]2[C@@]3(C)CCCC(C)(C)[C@@H]3CC[C@@]2(C)O)c1 [Compound No. 45, 2-[(1R,2R,4aS,8aS)-2-hydroxy-2,5,5,8a-tetramethyl-decahydronaphthalen-1-yl]-1-(3,5-dimethoxyphenyl)ethan-1-one]
COc1cc(OC)cc(C(=O)C[C@H]2[C@@H](C)CC[C@H]3C(C)(C)CCC[C@]23C)c1 [Compound No. 46, 2-[(1S,2S,4aS,8aR)-2,5,5,8a-tetramethyl-decahydronaphthalen-1-yl]-1-(3,5-dimethoxyphenyl)ethan-1-one]
COc1cc(O)cc(C(=O)C[C@H]2[C@@H](C)CC[C@H]3C(C)(C)CCC[C@]23C)c1 [Compound No. 47, 2-[(1S,2S,4aS,8aR)-2,5,5,8a-tetramethyl-decahydronaphthalen-1-yl]-1-(3-hydroxy-5-methoxyphenyl)ethan-1-one]
COc1cc(OC)cc(C(=O)[C@@H]2[C@@]3(C)CCCC(C)(C)[C@@H]3CC[C@@]2(C)O)c1 [Compound No. 50, (1R,2R,4aS,8aS)-1-[(3,5-dimethoxyphenyl)carbonyl]-2,5,5,8a-tetramethyl-decahydronaphthalen-2-ol]
COc1cc(OC)cc(C(=O)[C@H]2C(C)=CC[C@H]3C(C)(C)CCC[C@]23C)c1 [Compound No. 51, [(1S,4aS,8aS)-2,5,5,8a-tetramethyl-1,4,4a,5,6,7,8,8a-octahydronaphthalen-1-yl](3,5-dimethoxyphenyl)methanone]
COc1cc(OC)cc(C(=O)[C@H]2[C@@H](C)C(=O)C[C@H]3C(C)(C)CCC[C@]23C)c1 [Compound No. 53, (3R,4S,4aS,8aS)-4-[(3,5-dimethoxyphenyl)carbonyl]-3,4a,8,8-tetramethyl-decahydronaphthalen-2-one]
COc1ccc(CN[C@@H]2C[C@H]3C(C)(C)CCC[C@]3(C)[C@@H](C(=O)c3cc(OC)cc(OC)c3)[C@@H]2C)cc1 [Compound No. 54, (2R,3S,4S,4aS,8aS)-4-[(3,5-dimethoxyphenyl)carbonyl]-N-[(4-methoxyphenyl)methyl]-3,4a,8,8-tetramethyl-decahydronaphthalen-2-amine]

Each molecule was assayed against T1, His-hSHIP1 enzyme (assay: His-hSHIP1 activity, approach 2 (ratio of initial velocities IP4 25/IP4 250)). Conditions: ratio of initial velocities IP4 25/IP4 250 versus reference SHIP1 activator; asterisk in Table 2.
Assay type: biochemical
Set-up: key: +++: higher than reference or reference - 15%; ++: reference - 16% to reference - 30%; +: reference - 31% or lower
Method: as §1
In the second approach, a master mix is prepared that contains […] (0.4-1.6 ng/μL final), 25 μL of the substrate, IP4 (25 or 250 μM final), and 50 μL of test compound in 3.3% ethanol ([…]). Control blanks are also prepared by replacing His-hSHIP1 enzyme, IP4, or test compounds with Phosphate Assay Buffer. […] Each reaction component is preincubated at 37° C. for 30 min before adding to a 96-well microtiter plate. The master mix is then incubated at 37° C. At time 0, 20, 25 and 30 min, 25 μL of the master mix is removed and transferred to a new 96-well microtiter plate, to which 100 μL of Biomol Green Reagent is added to stop the reaction. After incubating the mixture for 20 min at room temperature for color development, the absorbance is read with SpectraMax Plus 96-well plate reader at a wavelength of 650 nm. Phosphate released is plotted against time to calculate the initial velocities (i.e., slope of the graph) at each IP4 concentration. The initial velocities are baseline corrected and the ratio of initial velocities (IP425/IP4250) is calculated and used to rate the test compounds.

Scoring, Approach 2 (Initial velocity Ratio), +++:
COc1cc(OC)cc(C(O)[C@@H]2[C@@]3(C)CCCC(C)(C)[C@@H]3CC[C@@]2(C)O)c1 (stereo partly drawn) [Compound No. 49, (1S,2R,4aS,8aS)-1-[(3,5-dimethoxyphenyl)(hydroxy)methyl]-2,5,5,8a-tetramethyl-decahydronaphthalen-2-ol]
C[C@@H]1[C@H](NC(=O)Nc2cccnc2)C[C@H]2C(C)(C)CCC[C@]2(C)[C@H]1C(=O)c1cc(O)cc(O)c1 [Compound No. 118, 3-[(2R,3S,4S,4aS,8aS)-4-[(3,5-dihydroxyphenyl)carbonyl]-3,4a,8,8-tetramethyl-decahydronaphthalen-2-yl]-1-(pyridin-3-yl)urea]

Scoring, Approach 2 (Initial velocity Ratio), ++:
C[C@@H]1[C@H](NCc2cnc[nH]2)C[C@H]2C(C)(C)CCC[C@]2(C)[C@H]1C(=O)c1cc(O)cc(O)c1 [Compound No. 119, 5-{[(1S,2S,3R,4aS,8aS)-3-[(1H-imidazol-5-ylmethyl)amino]-2,5,5,8a-tetramethyl-decahydronaphthalen-1-yl]carbonyl}benzene-1,3-diol]
Cc1cc(O)cc(C(=O)[C@H]2[C@H](C)[C@H](N)C[C@H]3C(C)(C)CCC[C@]23C)c1 [Compound No. 136, 3-{[(1S,2S,3R,4aS,8aS)-3-amino-2,5,5,8a-tetramethyl-decahydronaphthalen-1-yl]carbonyl}-5-methylphenol]
Cc1cc(O)cc(C(=O)[C@H]2[C@H](C)[C@H](NCc3cnc[nH]3)C[C@H]3C(C)(C)CCC[C@]23C)c1 [Compound No. 137, 3-{[(1S,2S,3R,4aS,8aS)-3-[(1H-imidazol-5-ylmethyl)amino]-2,5,5,8a-tetramethyl-decahydronaphthalen-1-yl]carbonyl}-5-methylphenol]
